Legend:
[1] = molecular target: Serine/threonine-protein kinase 10 (Homo sapiens) (UniProt O94804); details: Compound concentration 1000.0 nM
[2] = molecular target: Tyrosine-protein kinase ABL1 (Homo sapiens) (UniProt P00519); details: Compound concentration 1000.0 nM
[3] = tested on: Receptor-type tyrosine-protein kinase FLT3 (Homo sapiens), P36888 [R834Q]; details: Compound concentration 1000.0 nM
[4] = molecular target: Interferon-induced, double-stranded RNA-activated protein kinase (Homo sapiens) (UniProt P19525); details: Compound concentration 1000.0 nM
[5] = molecular target: LIM domain kinase 1 (Homo sapiens) (UniProt P53667); details: Compound concentration 1000.0 nM
[6] = tested on: Phosphatidylinositol 4,5-bisphosphate 3-kinase catalytic subunit alpha isoform (Homo sapiens), P42336 [H1047L]; details: Compound concentration 1000.0 nM
[7] = molecular target: Dual specificity protein kinase TTK (Homo sapiens) (UniProt P33981); details: Compound concentration 1000.0 nM
[8] = molecular target: Bone morphogenetic protein receptor type-1B (Homo sapiens) (UniProt O00238); details: Compound concentration 1000.0 nM
[9] = molecular target: Serine/threonine-protein kinase B-raf (Homo sapiens) (UniProt P15056); details: Compound concentration 1000.0 nM
[10] = molecular target: Serine/threonine-protein kinase D3 (Homo sapiens) (UniProt O94806); details: Compound concentration 1000.0 nM
[11] = molecular target: Serine/threonine-protein kinase WNK2 (Homo sapiens) (UniProt Q9Y3S1); details: Compound concentration 1000.0 nM
[12] = molecular target: Receptor-interacting serine/threonine-protein kinase 2 (Homo sapiens) (UniProt O43353); details: Compound concentration 1000.0 nM
[13] = molecular target: Ribosomal protein S6 kinase alpha-3 (Homo sapiens) (UniProt P51812); details: Compound concentration 1000.0 nM
[14] = molecular target: Serine/threonine-protein kinase DCLK1 (Homo sapiens) (UniProt O15075); details: Compound concentration 1000.0 nM
[15] = molecular target: Homeodomain-interacting protein kinase 4 (Homo sapiens) (UniProt Q8NE63); details: Compound concentration 1000.0 nM
[16] = molecular target: Calcium/calmodulin-dependent protein kinase type II subunit delta (Homo sapiens) (UniProt Q13557); details: Compound concentration 1000.0 nM
[17] = molecular target: Mitogen-activated protein kinase kinase kinase kinase 1 (Homo sapiens) (UniProt Q92918); details: Compound concentration 1000.0 nM
[18] = molecular target: Mitogen-activated protein kinase kinase kinase 1 (Homo sapiens) (UniProt Q13233); details: Compound concentration 1000.0 nM
[19] = molecular target: 5-hydroxytryptamine receptor 2A (Homo sapiens) (UniProt P28223); details: Compound concentration 10.0 uM
[20] = molecular target: Death-associated protein kinase 1 (Homo sapiens) (UniProt P53355); details: Compound concentration 1000.0 nM
[21] = molecular target: Aurora kinase A (Homo sapiens) (UniProt O14965); details: Compound concentration 1000.0 nM
[22] = molecular target: D(4) dopamine receptor (Homo sapiens) (UniProt P21917); details: Compound concentration 10.0 uM
[23] = molecular target: Tyrosine-protein kinase ABL1 (Homo sapiens) (UniProt P00519); details: Compound concentration 1000.0 nM; remark: listed apart in the source
[24] = tested on: Phosphatidylinositol 4,5-bisphosphate 3-kinase catalytic subunit alpha isoform (Homo sapiens), P42336 [Q546K]; details: Compound concentration 1000.0 nM
[25] = tested on: Mast/stem cell growth factor receptor Kit (Homo sapiens), P10721 [L576P]; details: Compound concentration 1000.0 nM
[26] = molecular target: Tyrosine-protein kinase HCK (Homo sapiens) (UniProt P08631); details: Compound concentration 1000.0 nM
[27] = molecular target: Phosphorylase b kinase regulatory subunit alpha, liver isoform (Homo sapiens) (UniProt P46019); details: Compound concentration 1000.0 nM
[28] = molecular target: Mitogen-activated protein kinase kinase kinase 4 (Homo sapiens) (UniProt Q9Y6R4); details: Compound concentration 1000.0 nM
[29] = molecular target: Serine/threonine-protein kinase 32C (Homo sapiens) (UniProt Q86UX6); details: Compound concentration 1000.0 nM
[30] = molecular target: Serine/threonine-protein kinase 32A (Homo sapiens) (UniProt Q8WU08); details: Compound concentration 1000.0 nM
[31] = molecular target: Serine/threonine-protein kinase MRCK beta (Homo sapiens) (UniProt Q9Y5S2); details: Compound concentration 1000.0 nM
[32] = molecular target: BMP-2-inducible protein kinase (Homo sapiens) (UniProt Q9NSY1); details: Compound concentration 1000.0 nM
[33] = molecular target: Serine/threonine-protein kinase DCLK2 (Homo sapiens) (UniProt Q8N568); details: Compound concentration 1000.0 nM
[34] = molecular target: Receptor-type tyrosine-protein kinase FLT3 (Homo sapiens) (UniProt P36888); details: Compound concentration 1000.0 nM
[35] = molecular target: Tyrosine-protein kinase receptor UFO (Homo sapiens) (UniProt P30530); details: Compound concentration 1000.0 nM
[36] = molecular target: Muscarinic acetylcholine receptor M3 (Homo sapiens) (UniProt P20309); details: Compound concentration 10.0 uM
[37] = tested on: Epidermal growth factor receptor (Homo sapiens), P00533 [UNDEFINED MUTATION]; details: Compound concentration 1000.0 nM
[38] = molecular target: Casein kinase II subunit alpha' (Homo sapiens) (UniProt P19784); details: Compound concentration 1000.0 nM
[39] = molecular target: Muscarinic acetylcholine receptor M1 (Homo sapiens) (UniProt P11229); details: Compound concentration 10.0 uM
[40] = molecular target: Serine/threonine-protein kinase MAK (Homo sapiens) (UniProt P20794); details: Compound concentration 1000.0 nM
[41] = molecular target: Tyrosine-protein kinase Fes/Fps (Homo sapiens) (UniProt P07332); details: Compound concentration 1000.0 nM
[42] = molecular target: Serine/threonine-protein kinase D2 (Homo sapiens) (UniProt Q9BZL6); details: Compound concentration 1000.0 nM
[43] = molecular target: Glycogen synthase kinase-3 alpha (Homo sapiens) (UniProt P49840); details: Compound concentration 1000.0 nM
[44] = molecular target: Serine/threonine-protein kinase NIM1 (Homo sapiens) (UniProt Q8IY84); details: Compound concentration 1000.0 nM
[45] = molecular target: Serine/threonine-protein kinase PAK 1 (Homo sapiens) (UniProt Q13153); details: Compound concentration 1000.0 nM

Tyrosine-protein kinase ABL1 (Homo sapiens), sequence (P00519 whole entry, canonical isoform): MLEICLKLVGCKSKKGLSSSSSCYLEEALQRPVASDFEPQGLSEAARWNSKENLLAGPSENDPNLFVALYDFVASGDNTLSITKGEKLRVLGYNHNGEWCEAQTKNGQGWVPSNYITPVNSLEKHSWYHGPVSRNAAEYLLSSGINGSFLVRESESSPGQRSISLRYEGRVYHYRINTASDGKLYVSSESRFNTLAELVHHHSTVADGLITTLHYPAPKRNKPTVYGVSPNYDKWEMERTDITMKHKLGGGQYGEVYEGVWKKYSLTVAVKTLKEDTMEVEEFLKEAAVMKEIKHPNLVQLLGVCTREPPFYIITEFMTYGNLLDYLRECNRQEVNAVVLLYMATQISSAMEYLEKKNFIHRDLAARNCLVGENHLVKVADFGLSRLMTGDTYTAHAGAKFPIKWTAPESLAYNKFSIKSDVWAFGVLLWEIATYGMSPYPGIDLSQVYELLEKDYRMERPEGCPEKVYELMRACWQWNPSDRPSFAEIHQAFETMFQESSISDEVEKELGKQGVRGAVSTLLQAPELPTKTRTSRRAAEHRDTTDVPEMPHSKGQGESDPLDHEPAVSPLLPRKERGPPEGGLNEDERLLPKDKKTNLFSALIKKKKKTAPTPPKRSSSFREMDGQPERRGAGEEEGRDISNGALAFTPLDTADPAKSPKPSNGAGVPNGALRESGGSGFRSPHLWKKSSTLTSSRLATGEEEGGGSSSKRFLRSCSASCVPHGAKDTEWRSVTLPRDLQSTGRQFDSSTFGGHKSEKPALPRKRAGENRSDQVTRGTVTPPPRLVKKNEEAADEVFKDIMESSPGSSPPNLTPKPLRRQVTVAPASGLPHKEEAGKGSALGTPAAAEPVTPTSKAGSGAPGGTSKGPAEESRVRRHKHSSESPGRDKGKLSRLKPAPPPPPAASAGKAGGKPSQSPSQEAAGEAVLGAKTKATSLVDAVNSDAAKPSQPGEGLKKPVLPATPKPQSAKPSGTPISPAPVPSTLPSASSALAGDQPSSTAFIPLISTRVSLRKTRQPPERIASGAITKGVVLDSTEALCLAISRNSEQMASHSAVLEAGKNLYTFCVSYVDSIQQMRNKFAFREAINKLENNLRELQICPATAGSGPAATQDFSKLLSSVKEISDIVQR
Tyrosine-protein kinase Fes/Fps (Homo sapiens), sequence (P07332 whole entry): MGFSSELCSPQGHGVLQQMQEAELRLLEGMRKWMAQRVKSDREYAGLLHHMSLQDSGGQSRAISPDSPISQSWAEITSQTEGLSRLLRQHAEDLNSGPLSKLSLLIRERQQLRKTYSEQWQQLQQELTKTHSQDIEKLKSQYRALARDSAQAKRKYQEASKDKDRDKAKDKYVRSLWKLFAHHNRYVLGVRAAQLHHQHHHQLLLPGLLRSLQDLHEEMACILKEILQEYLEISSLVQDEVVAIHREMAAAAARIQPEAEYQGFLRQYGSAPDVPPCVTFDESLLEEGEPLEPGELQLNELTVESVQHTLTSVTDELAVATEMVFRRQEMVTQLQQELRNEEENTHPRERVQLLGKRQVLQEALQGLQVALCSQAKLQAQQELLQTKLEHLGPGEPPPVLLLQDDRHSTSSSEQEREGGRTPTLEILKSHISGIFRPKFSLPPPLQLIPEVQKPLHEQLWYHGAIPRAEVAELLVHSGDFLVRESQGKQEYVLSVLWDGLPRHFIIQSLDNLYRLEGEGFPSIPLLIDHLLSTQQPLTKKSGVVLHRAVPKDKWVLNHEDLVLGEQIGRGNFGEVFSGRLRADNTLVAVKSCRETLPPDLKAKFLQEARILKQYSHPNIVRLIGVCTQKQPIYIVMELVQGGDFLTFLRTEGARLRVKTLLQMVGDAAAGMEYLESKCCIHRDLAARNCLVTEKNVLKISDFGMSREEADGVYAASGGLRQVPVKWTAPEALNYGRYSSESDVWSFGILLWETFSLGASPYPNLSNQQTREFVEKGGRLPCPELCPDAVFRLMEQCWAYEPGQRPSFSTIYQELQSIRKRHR
Serine/threonine-protein kinase 32A (Homo sapiens), sequence (Q8WU08 whole entry): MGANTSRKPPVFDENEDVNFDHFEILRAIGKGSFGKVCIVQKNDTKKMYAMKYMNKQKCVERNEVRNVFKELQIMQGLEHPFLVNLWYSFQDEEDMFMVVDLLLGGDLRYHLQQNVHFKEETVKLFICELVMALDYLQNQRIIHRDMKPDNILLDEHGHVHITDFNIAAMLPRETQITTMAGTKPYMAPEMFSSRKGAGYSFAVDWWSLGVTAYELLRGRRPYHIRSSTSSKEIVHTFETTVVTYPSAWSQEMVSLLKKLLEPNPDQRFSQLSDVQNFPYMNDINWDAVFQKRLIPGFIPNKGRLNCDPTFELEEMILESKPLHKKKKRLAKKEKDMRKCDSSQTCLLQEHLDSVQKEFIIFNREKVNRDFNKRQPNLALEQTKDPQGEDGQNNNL
Tyrosine-protein kinase HCK (Homo sapiens), sequence (P08631 2-526 limits assumed): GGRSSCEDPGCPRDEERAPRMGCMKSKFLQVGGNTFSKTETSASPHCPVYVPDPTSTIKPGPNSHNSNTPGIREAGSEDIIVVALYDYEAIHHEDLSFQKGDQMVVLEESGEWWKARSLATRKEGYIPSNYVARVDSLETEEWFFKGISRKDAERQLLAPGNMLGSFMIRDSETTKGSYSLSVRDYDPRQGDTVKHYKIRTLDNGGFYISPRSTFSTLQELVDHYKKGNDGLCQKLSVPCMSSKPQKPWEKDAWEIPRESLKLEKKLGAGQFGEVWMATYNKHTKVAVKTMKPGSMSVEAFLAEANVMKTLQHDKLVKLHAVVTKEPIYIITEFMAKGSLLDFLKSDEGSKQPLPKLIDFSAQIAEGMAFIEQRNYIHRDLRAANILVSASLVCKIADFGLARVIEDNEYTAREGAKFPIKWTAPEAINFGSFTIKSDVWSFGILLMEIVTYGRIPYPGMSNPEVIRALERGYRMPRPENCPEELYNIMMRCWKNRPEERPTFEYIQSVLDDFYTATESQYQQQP
Muscarinic acetylcholine receptor M1 (Homo sapiens), sequence (P11229 whole entry): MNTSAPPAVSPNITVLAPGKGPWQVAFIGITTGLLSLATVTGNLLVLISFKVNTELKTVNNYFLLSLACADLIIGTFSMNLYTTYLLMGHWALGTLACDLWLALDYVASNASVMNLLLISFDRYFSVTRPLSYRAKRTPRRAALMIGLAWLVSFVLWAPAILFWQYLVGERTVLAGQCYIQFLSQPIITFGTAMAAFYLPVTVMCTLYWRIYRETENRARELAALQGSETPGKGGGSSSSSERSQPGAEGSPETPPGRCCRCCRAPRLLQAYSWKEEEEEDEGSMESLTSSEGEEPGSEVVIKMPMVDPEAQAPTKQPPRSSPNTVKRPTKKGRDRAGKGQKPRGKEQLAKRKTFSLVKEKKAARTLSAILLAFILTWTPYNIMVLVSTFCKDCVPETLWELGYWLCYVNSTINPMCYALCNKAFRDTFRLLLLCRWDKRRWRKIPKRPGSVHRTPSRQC
Serine/threonine-protein kinase D2 (Homo sapiens), sequence (Q9BZL6 whole entry): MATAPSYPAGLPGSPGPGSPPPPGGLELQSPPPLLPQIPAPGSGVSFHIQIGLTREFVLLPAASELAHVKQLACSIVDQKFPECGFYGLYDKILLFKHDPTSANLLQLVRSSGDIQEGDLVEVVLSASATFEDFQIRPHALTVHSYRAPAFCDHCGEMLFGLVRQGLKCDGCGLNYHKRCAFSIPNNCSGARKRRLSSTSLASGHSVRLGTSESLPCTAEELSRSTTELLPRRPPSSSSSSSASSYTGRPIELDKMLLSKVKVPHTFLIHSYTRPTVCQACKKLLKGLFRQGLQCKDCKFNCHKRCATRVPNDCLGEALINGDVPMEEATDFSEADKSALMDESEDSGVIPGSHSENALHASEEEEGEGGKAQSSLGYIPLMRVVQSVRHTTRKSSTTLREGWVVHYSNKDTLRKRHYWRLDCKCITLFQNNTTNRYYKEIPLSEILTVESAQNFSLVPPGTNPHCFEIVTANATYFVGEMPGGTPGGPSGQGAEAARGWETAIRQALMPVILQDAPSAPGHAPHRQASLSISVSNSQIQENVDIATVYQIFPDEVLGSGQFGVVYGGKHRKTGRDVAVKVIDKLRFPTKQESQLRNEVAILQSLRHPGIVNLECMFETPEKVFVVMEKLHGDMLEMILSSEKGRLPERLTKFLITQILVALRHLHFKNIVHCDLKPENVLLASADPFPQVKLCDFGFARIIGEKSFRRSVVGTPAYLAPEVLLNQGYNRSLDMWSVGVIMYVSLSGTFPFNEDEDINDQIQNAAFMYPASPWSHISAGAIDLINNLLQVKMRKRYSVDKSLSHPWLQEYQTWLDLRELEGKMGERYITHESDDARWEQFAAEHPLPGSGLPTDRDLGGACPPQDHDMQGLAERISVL
Casein kinase II subunit alpha' (Homo sapiens), sequence (P19784 whole entry, looked up): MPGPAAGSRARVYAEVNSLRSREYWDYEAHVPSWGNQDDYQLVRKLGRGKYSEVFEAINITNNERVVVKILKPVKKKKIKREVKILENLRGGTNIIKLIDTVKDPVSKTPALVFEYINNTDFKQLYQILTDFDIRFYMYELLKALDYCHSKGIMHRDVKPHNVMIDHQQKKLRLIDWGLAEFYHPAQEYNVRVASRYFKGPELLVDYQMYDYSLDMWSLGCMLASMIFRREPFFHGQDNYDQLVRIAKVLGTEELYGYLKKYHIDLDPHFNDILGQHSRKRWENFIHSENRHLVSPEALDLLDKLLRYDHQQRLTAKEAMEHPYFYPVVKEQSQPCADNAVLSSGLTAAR
Aurora kinase A (Homo sapiens), sequence (O14965 whole entry): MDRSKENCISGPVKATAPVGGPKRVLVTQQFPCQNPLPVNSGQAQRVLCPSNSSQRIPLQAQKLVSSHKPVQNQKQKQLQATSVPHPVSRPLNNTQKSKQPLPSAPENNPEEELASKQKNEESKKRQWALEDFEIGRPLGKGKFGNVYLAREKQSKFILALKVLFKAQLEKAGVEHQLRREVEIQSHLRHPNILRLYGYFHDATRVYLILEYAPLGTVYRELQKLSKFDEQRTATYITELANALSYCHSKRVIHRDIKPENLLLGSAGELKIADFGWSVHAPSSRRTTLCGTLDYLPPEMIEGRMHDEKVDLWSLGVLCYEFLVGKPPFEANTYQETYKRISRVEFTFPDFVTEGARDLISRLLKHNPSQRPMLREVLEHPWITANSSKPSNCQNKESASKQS

C[C@@H](c1cccc(C#N)c1)n1cc(Cl)cc(C(N)=O)c1=N [(S)-9s]
residual activity [1]: 86%
residual activity [2]: 82%
residual activity [3]: 100%
residual activity [4]: 100%
residual activity [5]: 100%
residual activity [6]: 96%
residual activity [7]: 100%
residual activity [8]: 89%
residual activity [9]: 96%
residual activity [10]: 100%
residual activity [11]: 67%
residual activity [12]: 88%
residual activity [13]: 86%
residual activity [14]: 98%
residual activity [15]: 100%
residual activity [16]: 100%
residual activity [17]: 96%
residual activity [18]: 82%
inhibition [19]: 5.24%
residual activity [20]: 100%
residual activity [21]: 96%
inhibition [22]: 10.1%
residual activity [23]: 73%
residual activity [24]: 100%
residual activity [25]: 86%
residual activity [26]: 91%
residual activity [27]: 100%
residual activity [28]: 71%
residual activity [29]: 100%
residual activity [30]: 100%
residual activity [31]: 100%
residual activity [32]: 93%
residual activity [33]: 90%
residual activity [34]: 92%
residual activity [35]: 100%
inhibition [36]: -6.17%
residual activity [37]: 100%
residual activity [38]: 100%
inhibition [39]: 14.9%
residual activity [40]: 94%
residual activity [41]: 77%
residual activity [42]: 91%
residual activity [43]: 82%
residual activity [44]: 97%
residual activity [45]: 100%

C[C@H](c1cccc(C#N)c1)n1cc(Cl)cc(C(N)=O)c1=N [(R)-9s]
residual activity [1]: 100%
residual activity [2]: 100%
residual activity [3]: 100%
residual activity [4]: 100%
residual activity [5]: 88%
residual activity [6]: 92%
residual activity [7]: 66%
residual activity [8]: 94%
residual activity [9]: 100%
residual activity [10]: 65%
residual activity [11]: 58%
residual activity [12]: 66%
residual activity [13]: 80%
residual activity [14]: 76%
residual activity [15]: 100%
residual activity [16]: 100%
residual activity [17]: 100%
residual activity [18]: 90%
inhibition [19]: 12.3%
residual activity [20]: 100%
residual activity [21]: 97%
inhibition [22]: 6.56%
residual activity [23]: 77%
residual activity [24]: 100%
residual activity [25]: 93%
residual activity [26]: 98%
residual activity [27]: 100%
residual activity [28]: 47%
residual activity [29]: 100%
residual activity [30]: 100%
residual activity [31]: 85%
residual activity [32]: 100%
residual activity [33]: 88%
residual activity [34]: 90%
residual activity [35]: 100%
inhibition [36]: -8.15%
residual activity [37]: 100%
residual activity [38]: 100%
inhibition [39]: 9.11%
residual activity [40]: 100%
residual activity [41]: 53%
residual activity [42]: 58%
residual activity [43]: 61%
residual activity [44]: 84%
residual activity [45]: 100%

From ChEMBL document CHEMBL4507301 (2021)
